Reference: patent US8598339B2, “Withanolide isolated from Physalis longifolia and analogs and methods of use thereof” (University of Kansas, priority 2011, dated 2013)
Like-named read-outs stand apart in the source and are kept apart here.

What was measured:
Type in all cases: cell-based
MRC-5 = test: MTS cell viability assay, MRC-5; settings: Homo sapiens, MRC5, Table 1, 72-hour treatment
[1] = test system: human carcinoid cells NCI-H727; test: MTS cell viability assay, NCI-H727
Procedure: (§1) Human carcinoid cells, NCI-H727 (ATCC, Manassas, Va.), were cultured under standard conditions. Squamous cell carcinoma of head and neck cells, MDA1986 (Myers, et al. (2002) Clin. Cancer Res. 8:293) and JMAR (Swan, et al. (2003) Oral Oncol. 39:648-55); and melanoma cells lines B16F10 (ATCC, Manassas, Va.) and SKMEL28 (CLS, Eppelheim, Germany) were cultured in DMEM medium supplemented with 10% heat-inactivated fetal bovine serum (Sigma-Aldrich, St. Louis, Mo.), 1×MEM-essential amino acid, 1×MEM vitamin, and penicillin/streptomycin (Sigma-Aldrich, St. Louis, Mo.) in a humid environment of 5% CO2 at 37° C. Activity of withanolides against DRO81-1 and TT medullary thyroid cancer cells was also determined.
(§2) Cells were cultured in 96 well plates at a concentration of 1-2×10^4 cells/mL. Cell viability was assessed with the nonradioactive cell proliferation MTS assay using Cell Titer 96AQUEOUS One Solution Reagent (PROMEGA, Madison, Wis.), according to the manufacturer's instruction. After a 72-hour treatment, 20 μL of Cell Titer 96AQUEOUS One Solution Reagent were added to each well and incubated for 3 hours at 37° C. 5% CO2, and formazan absorbance was measured at 490 nm.

[2] = test system: DRO81-1 medullary thyroid cancer cells; test: MTS cell viability assay, DRO81-1
Procedure: as §1, §2

[3] = test system: squamous cell carcinoma of head and neck cells MDA1986; test: MTS cell viability assay, MDA1986; settings: Table 1, 72-hour treatment
Procedure: as §1, §2

[4] = test system: HSF1, Hsp70 and Hsp40 mRNA; test: HSF1, Hsp70 and Hsp40 mRNA levels; settings: Control 1.0
Procedure: Levels of HSF1, Hsp70 and Hsp40 mRNA were also determined in response to treatment with SX002 or X003 for 8 or 16 hours.

[5] = test system: squamous cell carcinoma of head and neck cells JMAR; test: MTS cell viability assay, JMAR; settings: for IC50: Table 1, 72-hour treatment
Procedure: as §1, §2

HS766T = test: Pancreatic cancer cell viability, HS766T
Procedure: (§3) The activity of the withanolides of this invention were tested in pancreatic cancer cells. […] Moreover, IC50 values were determined for these compounds (Table 14).

[6] = test system: human melanoma SKMEL28 cells; test: MTS cell viability assay, SKMEL28; settings: Homo sapiens; for IC50: SK-MEL-28, 72 h
Procedure: as §1, §2
A cell viability MTS assay was carried out to determine the anti-cancer effect of the withanolides on human melanoma SKMEL28 cells. Cells were treated for 72 hours and cell viability was determined according to the manufacturer's instruction.

Mia PaCa-2 = test: Pancreatic cancer cell viability, Mia PaCa-2; settings: Homo sapiens
Procedure: as §3

melanoma cells B16F10 = test: MTS cell viability assay, B16F10; settings: Mus musculus; for IC50: B16-F10, Table 1, 72-hour treatment
Procedure: as §1, §2

[7] = test system: hsf1 and client proteins of Hsp90 in Hs766T cells; test: Western blot, Hs766T
[8] = test system: hsf1 and client proteins of Hsp90 in MIA PaCa-2 cells; test: Western blot, MIA PaCa-2
[9] = test system: heat shock factor (HSF) / HSE-luciferase in Hs766T cells; test: HSE-luciferase reporter, Hs766T; parameters: dose or concentration left out as unconfirmed; settings: heat shock 42° C. 30 minutes; recovery 8 hours
Procedure: To monitor the activation of heat shock factor (HSF) and heat shock-mediated signal transduction pathways, Hs766T cells were transfected with a HSE-luciferase construct, then treated with 3 mM of the selected withanolides for 8 hours. The cells were heat shocked at 42° C. for 30 minutes and allowed to recover at 37° C. for 8 hours. Cells were lysed and luciferase activity was measured on a plate reader.

SUP-B15 cells [10] = test: Cell cycle analysis by PI flow cytometry, SUP-B15; settings: 48 hour treatment
Procedure: (§4) Cell proliferation was analyzed using MTS assay and Trypan Blue exclusion. Annexin V-FITC/Propidium Iodide flow cytometry was used to analyze the induction of apoptosis in SUP-B15 cells after treatment with anolides. Cell cycle analysis was performed using propidium iodide flow cytometry. Modulation of BCR-ABL and downstream effector proteins was determined by western blot analysis. Syngery between withanolides and TKIs was evaluated using MTS viability to calculate combination indices. Apoptotic synergy was evaluated using Annexin V/PI.

SUP-B15 cells [11] = test: Annexin V/propidium iodide apoptosis, SUP-B15; settings: 48 hour; approximately 10×IC50 (Withaferin A, X001), 4×IC50 (X003)
Procedure: as §4
At no concentrations was the population of cells in necrosis significant.

normal MRC-5 fibroblasts = test: MTS assay, normal MRC-5 fibroblasts (Example 7); settings: Homo sapiens, MRC5
Procedure: as §4

SUP-B15 Ph+ ALL cells = test: MTS assay, SUP-B15
Procedure: as §4

[12] = test system: TT medullary thyroid cancer cells; test: MTS cell viability assay, TT; settings: Table 1, 72-hour treatment
Procedure: as §1, §2

SUP-B15 Ph+ALL cells = test: Combination with imatinib, MTS viability, SUP-B15; settings: 16 combinations
Procedure: as §4

SUP-B15 cells [13] = test: Trypan blue exclusion assay, SUP-B15; settings: 5×, 2×, 1×, 0.5×IC50
Procedure: Cell proliferation was analyzed using MTS assay and Trypan Blue exclusion. Annexin V-FITC/Propidium Iodide flow cytometry was used to analyze the induction of apoptosis in SUP-B15 cells after treatment with anolides. Cell cycle analysis was performed using propidium iodide flow cytometry. Modulation of BCR-ABL and downstream effector proteins was determined by western blot analysis. […] between withanolides and TKIs was evaluated using MTS viability to calculate combination indices. Apoptotic synergy was evaluated using Annexin V/PI.

[14] = Table 3, treated for 72 hours, NA = no activity

Compound `CC(=O)OCC1=C(C)C[C@H]([C@@H](C)C2CC[C@H]3[C@@H]4C[C@H]5O[C@]56[C@@H](OC(C)=O)C=CC(=O)[C@]6(CO)[C@H]4CC[C@]23C)OC1=O` (some centres unmarked) [Compound X002, 4,27-diactyl X001] has an IC50 (MRC-5) of 410 nM, an IC50 ([1]; NCI-H727, 72 h) of 370 nM and an IC50 ([2]; 72 h) of 480 nM. For the same compound, the IC50 [3] was 2240 nM, the “HSF1 mRNA level” value ([4]; 8 hours) was 1.3 and the “HSP40 mRNA level” value ([4]; 8 hours) was 13.1. For the same compound, the “HSP70 mRNA level” value ([4]; 8 hours) was 56.6, the “HSF1 mRNA level” value ([4]; 16 hours) was 1.1 and the “HSP40 mRNA level” value ([4]; 16 hours) was 15.3. For the same compound, the “HSP70 mRNA level” value ([4]; 16 hours) was 196.7, the IC50 [5] was 140 nM and the IC50 (HS766T) was 400 nM. The IC50 ([6]; Table 1, 72-hour treatment) was 810 nM, the IC50 [6, 14] was 1250 nM and the IC50 (Mia PaCa-2) was 220 nM. The IC50 (melanoma cells B16F10) was 98 nM, the “stress and client protein response (western blot)” value [7] was “induced oxidative and proteotoxic stress, while depleting hsf1 and client proteins of Hsp90” and the “stress and client protein response (western blot)” value [8] was “induced oxidative and proteotoxic stress, while depleting hsf1 and client proteins of Hsp90”. For the same compound, the “heat shock-induced increase in luciferase activity” value [9] was “substantially reduced”.

In the case of `CC1=C(CO)C(=O)O[C@@H]([C@@H](C)[C@H]2CC[C@H]3[C@@H]4C[C@H]5O[C@]56[C@@H](O)C=CC(=O)[C@]6(C)[C@H]4CC[C@]23C)C1` [Withaferin A, reference compound], the IC50 (MRC-5) is reported as 200 nM, the IC50 ([1]; Table 1, NCI-H727, 72-hour treatment, read-out: IC50) is reported as 3880 nM and the “Cell Cycle (%) G0/G1” value (SUP-B15 cells [10]; 80 nM) is reported as 49.9%. For the same compound, the “Cell Cycle (%) G2/M” value (SUP-B15 cells [10]; 80 nM) was 27.8%, the “Cell Cycle (%) S” value (SUP-B15 cells [10]; 80 nM) was 22.2% and the “Cell Cycle (%) G0/G1” value (SUP-B15 cells [10]; 160 nM) was 50.2%. For the same compound, the “Cell Cycle (%) G2/M” value (SUP-B15 cells [10]; 160 nM) was 28.4%, the “Cell Cycle (%) S” value (SUP-B15 cells [10]; 160 nM) was 21.4% and the “Cell Cycle (%) G0/G1” value (SUP-B15 cells [10]; 320 nM) was 38.4%. The “Cell Cycle (%) G2/M” value (SUP-B15 cells [10]; 320 nM) was 46.8%, the “Cell Cycle (%) S” value (SUP-B15 cells [10]; 320 nM) was 14.8% and the “Cell Cycle (%) G0/G1” value (SUP-B15 cells [10]; 640 nM) was 23.7%. The “Cell Cycle (%) G2/M” value (SUP-B15 cells [10]; 640 nM) was 71%, the “Cell Cycle (%) S” value (SUP-B15 cells [10]; 640 nM) was 5.3% and the “Cell Cycle (%) G0/G1” value (SUP-B15 cells [10]; 1280 nM) was 47.1%. The “Cell Cycle (%) G2/M” value (SUP-B15 cells [10]; 1280 nM) was 34.3%, the “Cell Cycle (%) S” value (SUP-B15 cells [10]; 1280 nM) was 18.6% and the IC50 ([2]; Table 1, DRO81-1, 72-hour treatment, read-out: IC50) was 1090 nM. For the same compound, the IC50 [3] was 800 nM, the IC50 [5] was 2000 nM and the IC90 ([5]; Table 2) was 3600 nM. For the same compound, the induction of apoptosis (SUP-B15 cells [11]) was “almost all cells were in either late or early apoptosis”, the IC50 (normal MRC-5 fibroblasts) was 2200 nM and the IC50 ([6]; Table 1, 72-hour treatment) was 3960 nM. The IC50 [6, 14] was 3150 nM, the IC90 ([6]; SK-MEL-28, Table 2) was 680 nM and the IC50 (SUP-B15 Ph+ ALL cells; Homo sapiens, SUP-B15) was 132 nM. The “Fold Difference” value (SUP-B15 Ph+ ALL cells; MRC-5 vs SUP-B15 IC50) was 17X, the IC50 (melanoma cells B16F10) was 260 nM and the IC90 (melanoma cells B16F10; B16-F10, Table 2) was 1230 nM. For the same compound, the IC50 [12] was 1130 nM, the “combination index (CI) with imatinib” value (SUP-B15 Ph+ALL cells; 0.25×-1×IC50 of each drug) was 1.3 and the synergy with imatinib (SUP-B15 Ph+ALL cells) was “only showed synergy at three of the concentrations tested”. For the same compound, the “cell death at 24 hours, trypan blue exclusion” value (SUP-B15 cells [13]) was “did not cause significant cell death at 24 hours at any concentration tested”.
